# From patent US9006139B2, “Active compound combinations” (Bayer Intellectual Property GmbH, priority 2009, dated 2015)
# Read-outs that look alike come from different tables or passages of the source.
# Assays:
# Type in all cases: in vivo
# Plasmopara viticola = test: Plasmopara test (grapevines)/protective; conditions: Table B; 50 ppm a.i.
# Method: (§1) Solvent: 24.5 parts by weight of acetone
# (§2) • 24.5 parts by weight of dimethylacetamide Emulsifier: 1 part by weight of alkylaryl polyglycol ether
# (§3) To produce a suitable preparation of active compound, 1 part by weight of active compound is mixed with the stated amounts of solvent and emulsifier, and the concentrate is diluted with water to the desired concentration. To test for protective activity, young plants are sprayed with the preparation of active compound at the stated rate of application. After the spray coating has dried on, the plants are inoculated with an aqueous spore suspension of Plasmopara viticola and then remain for 1 day in an incubation cabinet at approximately 20° C. and a relative atmospheric humidity of 100%. The plant is subsequently placed for 4 days in a greenhouse at approximately 21° C. and a relative atmospheric humidity of approximately 90%. The plants are then misted and placed for 1 day in an incubation cabinet. The test is evaluated 6 days after the inoculation. 0% means an efficacy which corresponds to that of the control, while an efficacy of 100% means that no disease is observed.
# Venturia inaequalis = test: Venturia test (apples)/protective; conditions: Table D
# Method: as §1, §2
# as §3, with “conidia” for “spore”, “the causal agent of apple scab (Venturia inaequalis)” for “Plasmopara viticola”, “plants are then” for “plant is subsequently”, “placed” for “placed for 4 days”, “The” for “The plants are then misted and placed for 1 day in an incubation cabinet. The”, “10” for “6”
# Alternaria solani = test: Alternaria test (tomatoes)/protective; conditions: Alternaria solani, 72 h, Table E, read-out: Efficacy in % found; for pest or weed control at 50 ppm: 50 ppm a.i.
# In short: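 Protective test: young tomato plants were sprayed with compound in an acetone/dimethylacetamide emulsifier formulation diluted with water. After drying, plants were inoculated with Alternaria solani spores and kept at ~20 °C and 100% relative humidity. Scored 3 days post-inoculation as % efficacy, where 0% equals untreated control and 100% means no disease.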
# [1] = test system: Blumeria graminis fsp. tritici; test: Blumeria test (wheat)/preventive; conditions: Table G; 500 ppm a.i.
# Method: (§4) Solvent: 49 parts by weight of n,n-dimethylacetamid
# (§5) Emulsifier: 1 part by weight of alkylaryl polyglycol ether
# To produce a suitable preparation of active compound, 1 part by weight of active compound or active compound combination is mixed with the stated amounts of solvent and emulsifier, and the concentrate is diluted with water to the desired concentration. To test for preventive activity, young plants are sprayed with the preparation of active compound or active compound combination at the stated rate of application. After the spray coating has been dried, the plants are dusted with spores of Blumeria graminis fsp. tritici. The plants are placed in the greenhouse at a temperature of approximately 18° C. and a relative atmospheric humidity of approximately 80% to promote the development of mildew pustules. The test is evaluated 7 days after the inoculation. 0% means an efficacy which corresponds to that of the untreated control, while an efficacy of 100% means that no disease is observed.
# Septoria tritici = test: Septoria tritici-test (wheat)/preventive; conditions: Table H
# Method: as §4, §5
# (§6) To produce a suitable preparation of active compound, 1 part by weight of active compound or active compound combination is mixed with the stated amounts of solvent and emulsifier, and the concentrate is diluted with water to the desired concentration. To test for preventive activity, young plants are sprayed with the preparation of active compound or active compound combination at the stated rate of application. After the spray coating has been dried, the plants are sprayed with a spore suspension of Septoria tritici. The plants remain for 48 hours in an incubation cabinet at approximately 20° C. and a relative atmospheric humidity of approximately 100% and afterwards for 60 hours at approximately 15° C. in a translucent incubation cabinet at a relative atmospheric humidity of approximately 100%. The plants are placed in the greenhouse at a temperature of approximately 15° C. and a relative atmospheric humidity of approximately 80%. The test is evaluated 21 days after the inoculation. 0% means an efficacy which corresponds to that of the untreated control, while an efficacy of 100% means that no disease is observed.
# Pyrenophora teres = test: Pyrenophora teres-test (barley)/preventive
# Method: as §4, §5
# as §6, with “Pyrenophora teres.” for “Septoria tritici.”, “approximately” for “approximately 100% and afterwards for 60 hours at approximately 15° C. in a translucent incubation cabinet at a relative atmospheric humidity of approximately”, “20°” for “15°”, “8” for “21”
# Puccinia triticina = test: Puccinia triticina-test (wheat)/preventive; conditions: Table M; 500 ppm a.i.
# Method: as §4, §5
# as §6, with “Puccinia triticina.” for “Septoria tritici.”, “approximately” for “approximately 100% and afterwards for 60 hours at approximately 15° C. in a translucent incubation cabinet at a relative atmospheric humidity of approximately”, “20°” for “15°”, “8” for “21”
smiles,measurement,setting,value
"Cn1c(=O)c2sc3c(=O)n(C)c(=O)c3sc2c1=O [(I-1), 2,6-dimethyl-1H,5H-[1,4]dithiino[2,3-c:5,6-c′]dipyrrole-1,3,5,7(2H,6H)-tetrone]",Efficacy in % found,Plasmopara viticola,54%
same,Efficacy in % found,"Venturia inaequalis; test 1, 12.5 ppm a.i.",26%
same,Efficacy in % found,"Venturia inaequalis; test 1, 25 ppm a.i.",72%
same,Efficacy in % found,"Venturia inaequalis; test 2, 12.5 ppm a.i.",14%
same,pest or weed control at 12.5 ppm,"Alternaria solani; test 1, 12.5 ppm a.i.",0%
same,pest or weed control at 50 ppm,Alternaria solani; test 1,45%
same,pest or weed control at 50 ppm,Alternaria solani; test 2,50%
same,Efficacy in % found,[1],75%
same,Efficacy in % found,Septoria tritici; 500 ppm a.i.,30%
same,Efficacy in % found,Septoria tritici; 1000 ppm a.i.,50%
same,Efficacy in % found,"Pyrenophora teres; Table I1, 500 ppm a.i.",10%
same,Efficacy in % found,"Pyrenophora teres; Table I1, 1000 ppm a.i.",44%
same,Efficacy in % found,"Pyrenophora teres; Table I2, 1000 ppm a.i.",22%
same,Efficacy in % found,Puccinia triticina,10%
